Test results reported in US20200277268A1, “PENTAFLUOROPHENYL SULFONAMIDE COMPOUNDS, COMPOSITIONS AND USES THEREOF” (DALRIADA THERAPEUTICS INC., priority 2017, published 2020).
“Also recorded” adds a separate entry of the source.

Assays:
[1] = tested on: A-172; experiment: Cell viability, glioblastoma A-172; type: cell-based; settings: Homo sapiens, glioblastoma cell line
Description: (§1) The anti-cancer efficacy of exemplary compounds of the application were assessed in vitro against different cancer cell lines. […] 1×10^4 cells/well were plated in 96-well assay plates in culture medium. […] In some instances, FBS was removed for periods ranging from 16-24 hours, and re-introduced with test compound addition. After 24 hrs, test compounds and vehicle controls were added to appropriate wells such that the final volume was 100 μl in each well. The cells were cultured for the desired test exposure period (72 hours) at 37° C. and 5% CO2. The assay plates were removed from […] incubator and 20 μl/well of CellTiter-Blue® Reagent was added. The plates were incubated using standard cell culture conditions for 1-4 hours. Afterwards, the plates were shaken for 10 seconds and florescence was recorded at 560/590 nm using a Cytation 3 spectrophotometer. IC50 values were determined using non-linear regression analysis with GraphPad Prism 6.0 (GraphPad Software Inc.).

[2] = tested on: LN-229; experiment: Cell viability, glioblastoma LN-229; type: cell-based; settings: Homo sapiens, glioblastoma cell line
Description: as §1

[3] = tested on: U118MG; experiment: Cell viability, glioblastoma U118MG; type: cell-based; settings: Homo sapiens, U-118-MG; glioblastoma cell line
Description: as §1

[4] = tested on: ATCC3034; experiment: Cell viability, medulloblastoma ATCC3034; type: cell-based; settings: medulloblastoma cell line
Description: (§2) The anti-cancer efficacy of exemplary compounds of the application were assessed in vitro against different cancer cell lines. Cell viability was examined following treatment at various concentrations of inhibitor (0.097656-50 μM) using a CellTiter-Blue® cell viability assay. 1×10^4 cells/well were plated in 96-well assay plates in culture medium. All cells were grown in DMEM, IMDM and RPMI-1640 supplemented with 10% fetal bovine serum (FBS). In some instances, FBS was removed for periods ranging from 16-24 hours, and re-introduced with test compound addition. After 24 hrs, test compounds and vehicle controls were added to appropriate wells such that the final volume was 100 μl in each well. The cells were cultured for the desired test exposure period (72 hours) at 37° C. and 5% CO2. The assay plates were removed from […] incubator and 20 μl/well of CellTiter-Blue® Reagent was added. The plates were incubated using standard cell culture conditions for 1-4 hours. Afterwards, the plates were shaken for 10 seconds and florescence was recorded at 560/590 nm using a Cytation 3 spectrophotometer. IC50 values were determined using non-linear regression analysis with GraphPad Prism 6.0 (GraphPad Software Inc.). […]

[5] = tested on: PL-21; experiment: Cell viability, AML PL-21; type: cell-based; settings: Table 4
Description: as §2

[6] = tested on: tubulin; experiment: Tubulin polymerization assay; type: biochemical; settings: 10 μM compound, optical density 340 nm
[7] = tested on: bromodomains; experiment: BROMOscan bromodomain screen (DiscoverX); type: binding; settings: 10 μM
Description: T7 phage strains displaying bromodomains were grown in parallel in 24-well blocks in an E. coli host derived from the BL21 strain. E. coli were grown to log-phase and infected with T7 phage from a frozen stock (multiplicity of infection=0.4) and incubated with shaking at 32° C. until lysis (90-150 minutes). The lysates were centrifuged (5,000×g) and filtered (0.2 μm) to remove cell debris. […] The liganded beads were blocked with excess biotin and washed with blocking buffer (SeaBlock (Pierce), 1% BSA, 0.05 Tween 20, 1 mM DTT) to remove unbound ligand and to reduce non-specific phage binding. […] Test compounds were prepared as 1000× stocks in 100% DMSO and subsequently diluted 1:25 in monoethylene glycol (MEG). The compounds were then diluted directly into the assays such that the final concentrations of DMSO and MEG were 0.1% and 2.4%, respectively. All reactions were performed in polypropylene 384-well plates in a final volume of 0.02 ml. […] The bromodomain concentration in the eluates was measured by qPCR.
I-1 test compound was tested at 10 μM, and results for primary screen binding interactions are reported as ‘% Ctrl,’ where lower numbers indicate stronger hits in the matrix. % Ctrl is calculated with the following formula:
test compound=I-1 negative control=DMSO (100% Ctrl) positive control=control compound (0% Ctrl)

[8] = molecular target: T1, UBA5 (Homo sapiens, UniProt Q9GZZ9); experiment: MS study of UBA5 covalent adduct; type: binding; settings: 100 μM I-1, 50 μM UBA5
T1 construct: Constructs of full length human UBA5 (1-404) were cloned into a pET28b(+) vector; His-SUMO (N, cleaved yes); made in house; host or cells: E. coli BL21 (DE3) RILP
T1 sequence (Q9GZZ9 whole entry): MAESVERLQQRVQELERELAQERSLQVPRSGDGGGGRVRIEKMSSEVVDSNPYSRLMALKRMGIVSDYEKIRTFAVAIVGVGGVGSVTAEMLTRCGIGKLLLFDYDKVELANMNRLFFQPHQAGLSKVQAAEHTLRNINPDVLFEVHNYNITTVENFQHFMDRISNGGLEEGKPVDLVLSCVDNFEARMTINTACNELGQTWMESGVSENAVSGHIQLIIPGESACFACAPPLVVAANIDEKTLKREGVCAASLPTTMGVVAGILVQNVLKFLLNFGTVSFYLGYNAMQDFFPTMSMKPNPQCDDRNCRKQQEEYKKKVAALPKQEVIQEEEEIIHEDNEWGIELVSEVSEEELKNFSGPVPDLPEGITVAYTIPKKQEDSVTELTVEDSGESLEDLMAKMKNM
Description: To further characterize covalent modification of UBA5 by I-1, samples were incubated as 100 μM I-1 and 50 μM UBA5 (50 mM HEPES, pH 7.4) at 30° C. for 2 hours, followed by storage overnight at 4° C. prior to submission for LC-MS analysis.

[9] = tested on: UFMylation pathway (UBA5, UFC1, UFM1, c-Myc) in MV4-11 cells; experiment: Western blot of UFMylation pathway in MV4-11 cells; type: cell-based; settings: 8 hours
Description: Post-treatment (8 hours) of MV4-11 cells with I-1 test compound at 1, 0.5, 0.25, 0.1 and 0 μM concentrations, all cells were lysed with radioimmunoprecipitation assay (RIPA) buffer: 20 mM Tris pH 7.4, 150 mM NaCl, 0.5% deoxycholate, 1% Triton X-100, 0.1% sodium dodecyl sulfate (SDS). Total protein was measured using BCA assay (Sigma). In each assay, clarified protein were resolved on a 4%-15% polyacrylamideSDS gel and transferred to a PVDF membrane (Bio-Rad). The membranes were blocked with 5% solution of skim milk powder in TBST and incubated for at least 1 hour followed by an overnight incubation at 4° C. in primary antibody (1:1000 dilution). Blots were probed with antibodies against UBA5, UFM1, UFC1, c-Myc, and beta-actin was used as a loading control (Santa Cruz Biotechnology catalog # sc-835). The PVDF membrane then washed with TBST (3 times for 5 minutes). A horseradish peroxides (HRP)-conjugated goat anti-mouse IgG secondary antibodies (Cell signaling Catalog #7076S) was applied to the membrane (1:5000 dilution) and incubated for 1 hour at room temperature. The blots were then rinsed again 3 times in TBST for 10 minutes. Bands were visualized using clarity western ECL substrate luminal/enhancer solution and peroxide solution 1:1 ratio for HRP secondary antibody, according to the manufacturer's instructions (Bio-Rad) and analyzed using Image lab software (Bio-Rad).

[10] = molecular target: hERG channel (Homo sapiens, UniProt Q12809); experiment: cell-based
hERG channel, sequence (Q12809 whole entry): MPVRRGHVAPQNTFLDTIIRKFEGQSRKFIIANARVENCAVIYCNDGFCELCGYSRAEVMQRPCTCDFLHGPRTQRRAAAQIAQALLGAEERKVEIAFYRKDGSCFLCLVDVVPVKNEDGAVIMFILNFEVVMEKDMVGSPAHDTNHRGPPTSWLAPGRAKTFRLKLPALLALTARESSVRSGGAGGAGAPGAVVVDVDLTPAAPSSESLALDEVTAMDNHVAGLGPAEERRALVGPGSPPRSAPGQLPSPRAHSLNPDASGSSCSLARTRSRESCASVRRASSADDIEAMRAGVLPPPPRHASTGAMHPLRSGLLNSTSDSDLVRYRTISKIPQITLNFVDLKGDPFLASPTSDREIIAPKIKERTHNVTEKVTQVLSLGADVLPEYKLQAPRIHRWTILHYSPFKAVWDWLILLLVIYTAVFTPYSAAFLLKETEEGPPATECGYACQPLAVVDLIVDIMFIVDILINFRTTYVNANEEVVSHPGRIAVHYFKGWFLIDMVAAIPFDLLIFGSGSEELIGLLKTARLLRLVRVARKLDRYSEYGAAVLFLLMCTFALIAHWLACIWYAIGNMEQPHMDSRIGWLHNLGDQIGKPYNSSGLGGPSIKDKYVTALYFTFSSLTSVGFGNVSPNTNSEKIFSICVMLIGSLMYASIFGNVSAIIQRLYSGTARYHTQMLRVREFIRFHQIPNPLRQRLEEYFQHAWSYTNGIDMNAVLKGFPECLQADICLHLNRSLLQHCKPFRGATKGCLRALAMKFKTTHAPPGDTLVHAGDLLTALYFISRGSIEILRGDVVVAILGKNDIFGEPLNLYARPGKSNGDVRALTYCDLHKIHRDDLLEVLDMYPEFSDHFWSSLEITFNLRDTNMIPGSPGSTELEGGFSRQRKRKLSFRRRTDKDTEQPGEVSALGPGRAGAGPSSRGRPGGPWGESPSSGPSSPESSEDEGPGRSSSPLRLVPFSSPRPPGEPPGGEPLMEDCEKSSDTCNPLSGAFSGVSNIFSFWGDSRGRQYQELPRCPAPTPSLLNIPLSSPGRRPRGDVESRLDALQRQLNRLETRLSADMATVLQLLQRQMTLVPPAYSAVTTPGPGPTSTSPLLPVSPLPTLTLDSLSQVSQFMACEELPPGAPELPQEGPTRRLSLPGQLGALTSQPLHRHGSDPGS

- IC50 [1]: 7.16 µM
- IC50 [2]: 3.03 µM
- IC50 [3]: 10.3 µM
- IC50 [4]: 800 nM
- UBA5 covalent adduct formation by MS [8]: covalent adduct formation
Compound: O=S(=O)(c1c(F)c(F)c(F)c(F)c1F)N(Cc1ccc(F)cc1)C1CC1 [Compound I-1, N-cyclopropyl-2,3,4,5,6-pentafluoro-N-(4-fluorobenzyl)benzenesulfonamide]
- IC50 [5]: 3.5 µM
- inhibition of tubulin polymerization [6]: Negligible inhibition; also recorded: no significant inhibitory action
- competitive binding / inhibition of 32 bromodomain targets [7]: negligible competitive binding; also recorded: does not inhibit
- concentration at which UFM1-UFC1 conjugate levels decrease [9]: ≥ 250 nM
- concentration at which c-Myc levels decrease [9]: ≥ 250 nM
- concentration giving complete wipe-out of UBA5 total protein [9]: greater than 500 nM
- concentration giving reduction of UBA5 total protein levels [9]: 250 nM
- IC50 [10]: 17.3 µM
